Data taken from patent US6642392B1 (priority 1997, dated 2003).
Like-named read-outs stand apart in the source and are kept apart here.

Key:
Assay type in all cases: in vivo
[1] = system: Eiysiphe graminis f. sp. tritici; test: Test A: wheat powdery mildew, preventive spray on wheat seedlings; details: for Test A disease control rating (100 = 100% disease control, 0 = no disease control): wheat seedlings sprayed to run-off, inoculated the following day, rating relative to controls, unmarked compounds (standard test rate); for Test A disease control rating: wheat powdery mildew
Outline: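 Compounds (3% acetone, 250 ppm Trem 014) sprayed to run-off on wheat seedlings, inoculated next day with spore dust. Incubated 7 days at 20° C before disease rating, 0–100% control relative to untreated controls.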

Pyricularia oryzae = details: for Test C disease control rating (100 = 100% disease control, 0 = no disease control): rice seedlings sprayed to run-off, inoculated the following day, rating relative to controls, unmarked compounds (standard test rate); for Test C disease control rating: rice blast
Phytophthora infestans = details: for Test D disease control rating (100 = 100% disease control, 0 = no disease control): tomato seedlings sprayed to run-off, inoculated the following day, rating relative to controls, unmarked compounds (standard test rate); for Test D disease control rating: tomato late blight
Botrytis cinerea = test: Test E: gray mold, preventive spray on cucumber seedlings; details: for Test E disease control rating (100 = 100% disease control, 0 = no disease control): cucumber seedlings sprayed to run-off, inoculated the following day, rating relative to controls, unmarked compounds (standard test rate); for Test E disease control rating: gray mold on cucumber
Outline: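 Compounds in 3% acetone were suspended with 250 ppm Trem 014 surfactant and sprayed to run-off on cucumber seedlings. B. cinerea spores were inoculated next day, then 48 h saturated humidity at 20° C and 5 days at 20° C. Disease control rated 0–100% versus controls.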

Puccinia recondita = test: Test B: wheat leaf rust, preventive spray on wheat seedlings; details: for Test B disease control rating (100 = 100% disease control, 0 = no disease control): wheat seedlings sprayed to run-off, inoculated the following day, rating relative to controls, unmarked compounds (standard test rate); for Test B disease control rating: wheat leaf rust
Outline: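 Wheat seedlings were sprayed to run-off with compound (3% acetone, 250 ppm Trem 014), then inoculated with P. recondita spores the next day. They were held 24 h saturated at 20 °C, then 6 days at 20 °C. Ratings are 0–100% disease control versus controls.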

[2] = 100 = 100% disease control, 0 = no control, unmarked entries (standard test concentration)

Compound	Test A disease control rating ([1]; tested at 40 ppm) [%]	Test C disease control rating (Pyricularia oryzae; tested at 40 ppm) [%]	Test D disease control rating (Phytophthora infestans; tested at 40 ppm) [%]	Test E disease control rating (Botrytis cinerea; tested at 40 ppm) [%]	Test B disease control rating (Puccinia recondita; tested at 40 ppm) [%]	further results
C=CC(C)(C)C(C#N)C(=O)N[C@H](C)COc1cc(Cl)ccc1Cl (single isomer, unassigned) [215a]						Test A disease control rating (100 = 100% disease control, 0 = no disease control) [1]: 63%; Test C disease control rating (100 = 100% disease control, 0 = no disease control) (Pyricularia oryzae): 99%; Test D disease control rating (100 = 100% disease control, 0 = no disease control) (Phytophthora infestans): 45%; Test E disease control rating (100 = 100% disease control, 0 = no disease control) (Botrytis cinerea): 0%; Test B disease control rating (100 = 100% disease control, 0 = no disease control) (Puccinia recondita): 0%
C=CC(C)(C)C(C#N)C(=O)N[C@H](C)COc1cc(Cl)ccc1Cl (single isomer, unassigned) [215b]						Test A disease control rating (100 = 100% disease control, 0 = no disease control) [1]: 0%; Test C disease control rating (100 = 100% disease control, 0 = no disease control) (Pyricularia oryzae): 99%; Test D disease control rating (100 = 100% disease control, 0 = no disease control) (Phytophthora infestans): 76%; Test E disease control rating (100 = 100% disease control, 0 = no disease control) (Botrytis cinerea): 83%; Test B disease control rating (100 = 100% disease control, 0 = no disease control) (Puccinia recondita): 28%
C[C@H](COc1cc(F)ccc1F)NC(=O)C(C#N)C(C)(C)C=CF (single isomer, unassigned) [221a]						Test A disease control rating (100 = 100% disease control, 0 = no disease control) [1]: 0%; Test C disease control rating (100 = 100% disease control, 0 = no disease control) (Pyricularia oryzae): 100%; Test D disease control rating (100 = 100% disease control, 0 = no disease control) (Phytophthora infestans): 41%; Test E disease control rating (100 = 100% disease control, 0 = no disease control) (Botrytis cinerea): 0%; Test B disease control rating (100 = 100% disease control, 0 = no disease control) (Puccinia recondita): 0%
C[C@H](COc1cc(F)ccc1F)NC(=O)C(C#N)C(C)(C)C=CF (single isomer, unassigned) [221b]						Test A disease control rating (100 = 100% disease control, 0 = no disease control) [1]: 62%; Test C disease control rating (100 = 100% disease control, 0 = no disease control) (Pyricularia oryzae): 100%; Test D disease control rating (100 = 100% disease control, 0 = no disease control) (Phytophthora infestans): 41%; Test E disease control rating (100 = 100% disease control, 0 = no disease control) (Botrytis cinerea): 0%; Test B disease control rating (100 = 100% disease control, 0 = no disease control) (Puccinia recondita): 68%
CC(C=Cc1cc(F)ccc1F)NC(=O)C(C#N)C(C)(C)C (single isomer, unassigned) [229a]						Test A disease control rating (100 = 100% disease control, 0 = no disease control) [1]: 0%; Test C disease control rating (100 = 100% disease control, 0 = no disease control) (Pyricularia oryzae): 100%; Test D disease control rating (100 = 100% disease control, 0 = no disease control) (Phytophthora infestans): 0%; Test E disease control rating (100 = 100% disease control, 0 = no disease control) (Botrytis cinerea): 55%; Test B disease control rating (100 = 100% disease control, 0 = no disease control) (Puccinia recondita): 0%
CC(C=Cc1cc(F)ccc1F)NC(=O)C(C#N)C(C)(C)C (single isomer, unassigned) [229b]						Test A disease control rating (100 = 100% disease control, 0 = no disease control) [1]: 0%; Test C disease control rating (100 = 100% disease control, 0 = no disease control) (Pyricularia oryzae): 100%; Test D disease control rating (100 = 100% disease control, 0 = no disease control) (Phytophthora infestans): 25%; Test E disease control rating (100 = 100% disease control, 0 = no disease control) (Botrytis cinerea): 95%; Test B disease control rating (100 = 100% disease control, 0 = no disease control) (Puccinia recondita): 0%
CCC1(C(=O)NC(C)C=Cc2cc(F)ccc2F)C(C)C1(Cl)Cl (single isomer, unassigned) [267a]						Test A disease control rating (100 = 100% disease control, 0 = no disease control) [1]: 78%; Test C disease control rating (100 = 100% disease control, 0 = no disease control) (Pyricularia oryzae): 97%; Test D disease control rating (100 = 100% disease control, 0 = no disease control) (Phytophthora infestans): 0%; Test E disease control rating (100 = 100% disease control, 0 = no disease control) (Botrytis cinerea): 55%; Test B disease control rating (100 = 100% disease control, 0 = no disease control) (Puccinia recondita): 0%
CCc1ccccc1OCC(C)NC(=O)C1(CC)C(C)C1(Cl)Cl (centres unmarked) [97b]	71	53	0	0	0	
CCCc1ccccc1OCC(C)NC(=O)C1(CC)C(C)C1(Cl)Cl (centres unmarked) [98b]	52	74	0	0	0	
C=CCc1ccccc1OCC(C)NC(=O)C1(CC)C(C)C1(Cl)Cl (centres unmarked) [101b]	0	0	0	0	0	
CCC1(C(=O)NC(C)COc2c(F)cccc2F)C(C)C1(Cl)Cl (centres unmarked) [105b]	21	74	0	0	0	
CCC1(C(=O)NC(C)C=Cc2cc(F)ccc2F)C(C)C1(Cl)Cl (centres unmarked) [267b]						Test A disease control rating (100 = 100% disease control, 0 = no disease control) [1]: 92%; Test C disease control rating (100 = 100% disease control, 0 = no disease control) (Pyricularia oryzae): 100%; Test D disease control rating (100 = 100% disease control, 0 = no disease control) (Phytophthora infestans): 0%; Test E disease control rating (100 = 100% disease control, 0 = no disease control) (Botrytis cinerea): 55%; Test B disease control rating (100 = 100% disease control, 0 = no disease control) (Puccinia recondita): 0%
CCC1(C(=O)NC(C)COc2ccccc2C(C)C)C(C)C1(Cl)Cl (centres unmarked) [compound 99]	83	0	68	0	0	
CCC1(C(=O)NC(C)COc2ccccc2C(C)(C)C)C(C)C1(Cl)Cl (centres unmarked) [compound 100]	52	0	0	0	0	
CCC1(C(=O)NC(C)COc2ccccc2CC#N)C(C)C1(Cl)Cl (centres unmarked) [compound 103]						Test A disease control rating ([1]; 100 = 100% disease control, 0 = no control relative to controls, unmarked entries (standard test concentration)): 0%; Test C disease control rating (Pyricularia oryzae; [2]): 53%; Test D disease control rating (Phytophthora infestans; [2]): 0%; Test E disease control rating (Botrytis cinerea; [2]): 0%; Test B disease control rating (Puccinia recondita; [2]): 26%
CCC1(C(=O)NC(C)COc2cccc(F)c2F)C(C)C1(Cl)Cl (centres unmarked) [compound 104]	84	97	0	0	0	
CCC1(C(=O)NC(C)COc2ccc(F)cc2F)C(C)C1(Cl)Cl (centres unmarked) [compound 106]	84	97	19	0	0	
CCC1(C(=O)NC(C)COc2cc(F)ccc2F)C(C)C1(Cl)Cl (centres unmarked) [compound 107]	71	100	0	0	0	
CCC1(C(=O)NC(C)COc2ccc(F)c(F)c2)C(C)C1(Cl)Cl (centres unmarked) [compound 108]	57	94	0	0	0	
CCC1(C(=O)NC(C)COc2cc(F)cc(F)c2F)C(C)C1(Cl)Cl (centres unmarked) [compound 109]	52	53	0	0	0	
CCC1(C(=O)NC(C)COc2cc(F)c(F)cc2F)C(C)C1(Cl)Cl (centres unmarked) [compound 110]	90	97	0	0	0	
CCC1(C(=O)NC(C)COc2cccc(Cl)c2Cl)C(C)C1(Cl)Cl (centres unmarked) [compound 111]	90	0	90	0	0	
CCC1(C(=O)NC(C)COc2ccc(Cl)cc2Cl)C(C)C1(Cl)Cl (centres unmarked) [compound 112]	71	0	0	0	0	
CCC1(C(=O)NC(C)COc2cc(Cl)ccc2Cl)C(C)C1(Cl)Cl (centres unmarked) [compound 113]	0	97	19	0	0	
CCC1(C(=O)NC(C)COc2c(Cl)cccc2Cl)C(C)C1(Cl)Cl (centres unmarked) [compound 114]	83	0	0	0	0	
CCC1(C(=O)NC(C)COc2cc(Cl)cc(Cl)c2)C(C)C1(Cl)Cl (centres unmarked) [compound 115]	52	32	0	0	0	
CCC1(C(=O)NC(C)COc2cc(Cl)cc(Cl)c2Cl)C(C)C1(Cl)Cl (centres unmarked) [compound 116]	21	0	0	0	0	
CCC1(C(=O)NC(C)COc2c(Cl)ccc(Cl)c2Cl)C(C)C1(Cl)Cl (centres unmarked) [compound 117]	83	74	0	0	0	
